Experimental data from US12486251B2 (PHARMABLOCK SCIENCES (NANJING) , INC., priority 2020, dated 2025).

Molecular target: CBP recombinant proteins (Homo sapiens (Human), UniProt Q92793)
Experiment: Competitive HTRF assay for affinity to CBP recombinant protein
Type: binding
Details: His-tagged CBP 5 nM, biotin-labeled ligand 50 nM, 1% DMSO
Protocol: The affinity of the compounds synthesized in the present patert to the CBP recombinant proteins was determined by competitive HTRF method. His-tagged cyclic adenosine monophosphate response element binding protein (CREB-binding protein, CBP) was expressed in Escherichia coli system and further purified. CBP biotinylated ligands were all self-made. The BL21 star (DE3) competert cells transfected with His-tagged CBP protein genes at N-terminal were cultured at 37° C. for 16 h until the OD value was between 0.6 and 0.8, induced by 0.5 mM of IPTG and cultured overnight. The supernatant of cell lysate was purified by a Ni-ion affinity column and a Superdex75 molecular sieve column sequentially. The purity of resulting CBP proteins was 95%. The fluorescent donor reagent MAb Anti 6HIS—Eu cryptate Gold (Cisbio #61HI2KLA), the receptor reagent Streptavidin-XL665 (#610SAXLA) and the detection buffer (#62SDBRDD) required for HTRF were obtained from CISBIO BIOASSAYS (Codolet, France). Tris(2-carboxyethyl)phosphine hydrochloride (TCEP), sodium chloride, adenosine triphosphate (ATP), Tween-20, dimethylsulfoxide (DMSO), bovine serum albumin (BSA) and HEPES buffer were obtained from SIGMA at the highest level commercially available.
The general procedure of the competitive HTRF assay for the affinity to CBP recombinant proteins is as follows: 0.05% Tween-20 and 1 mM of TCEP were added immediately before the assay, and the assay was performed in a buffer consisting of 0.1 mg/ml BSA, 50 mM of HEPES and 5 mM of NaCl of pH 7.5. 2.5 μL of compound solution in a determination buffer with 4% DMSO and 5 μL of CBP solution in a determination buffer were added to a white low-volume 384-well microtiter plate, incubated at room temperature for 20 min, and then incubated at room temperature for 40 min by adding 2.5 μL of biotin-labeled ligand solution to the determination buffer. The final concentrations of CBP, biotin-labeled ligand and DMSO were 5 nM, 50 nM and 1%, respectively. Then, 5 μL of MAb Anti 6HIS—Eu cryptate Gold and […] of Streptavidin-XL665 in detection buffers from the manufacturer were added to the mixture, and the mixture was incubated for another 60 min. The final concentration of Streptavidin-XL665 was 12.5 nM, and MAb Anti 6HIS—Eu cryptate Gold was diluted according to the final concentration provided by the supplier. The multimode reader Spark from TECAN (Mannedorf, Switzerland) was used to read the plate to detect the homogeneous time-resolved fluorescence intensity of two groups, in which the excitation wavelength was 320 nm and the emission wavelengths were 665 nm and 620 nm. The IC50 value of the inhibitor was obtained by fitting fluorescence intensity ratios at 665 nm/620 nm with respect to the inhibitor concentration in an S-shaped dose-response curve by using Prism 7 (La Jolla, 15 CA).

CBP recombinant proteins, sequence (Q92793 whole entry): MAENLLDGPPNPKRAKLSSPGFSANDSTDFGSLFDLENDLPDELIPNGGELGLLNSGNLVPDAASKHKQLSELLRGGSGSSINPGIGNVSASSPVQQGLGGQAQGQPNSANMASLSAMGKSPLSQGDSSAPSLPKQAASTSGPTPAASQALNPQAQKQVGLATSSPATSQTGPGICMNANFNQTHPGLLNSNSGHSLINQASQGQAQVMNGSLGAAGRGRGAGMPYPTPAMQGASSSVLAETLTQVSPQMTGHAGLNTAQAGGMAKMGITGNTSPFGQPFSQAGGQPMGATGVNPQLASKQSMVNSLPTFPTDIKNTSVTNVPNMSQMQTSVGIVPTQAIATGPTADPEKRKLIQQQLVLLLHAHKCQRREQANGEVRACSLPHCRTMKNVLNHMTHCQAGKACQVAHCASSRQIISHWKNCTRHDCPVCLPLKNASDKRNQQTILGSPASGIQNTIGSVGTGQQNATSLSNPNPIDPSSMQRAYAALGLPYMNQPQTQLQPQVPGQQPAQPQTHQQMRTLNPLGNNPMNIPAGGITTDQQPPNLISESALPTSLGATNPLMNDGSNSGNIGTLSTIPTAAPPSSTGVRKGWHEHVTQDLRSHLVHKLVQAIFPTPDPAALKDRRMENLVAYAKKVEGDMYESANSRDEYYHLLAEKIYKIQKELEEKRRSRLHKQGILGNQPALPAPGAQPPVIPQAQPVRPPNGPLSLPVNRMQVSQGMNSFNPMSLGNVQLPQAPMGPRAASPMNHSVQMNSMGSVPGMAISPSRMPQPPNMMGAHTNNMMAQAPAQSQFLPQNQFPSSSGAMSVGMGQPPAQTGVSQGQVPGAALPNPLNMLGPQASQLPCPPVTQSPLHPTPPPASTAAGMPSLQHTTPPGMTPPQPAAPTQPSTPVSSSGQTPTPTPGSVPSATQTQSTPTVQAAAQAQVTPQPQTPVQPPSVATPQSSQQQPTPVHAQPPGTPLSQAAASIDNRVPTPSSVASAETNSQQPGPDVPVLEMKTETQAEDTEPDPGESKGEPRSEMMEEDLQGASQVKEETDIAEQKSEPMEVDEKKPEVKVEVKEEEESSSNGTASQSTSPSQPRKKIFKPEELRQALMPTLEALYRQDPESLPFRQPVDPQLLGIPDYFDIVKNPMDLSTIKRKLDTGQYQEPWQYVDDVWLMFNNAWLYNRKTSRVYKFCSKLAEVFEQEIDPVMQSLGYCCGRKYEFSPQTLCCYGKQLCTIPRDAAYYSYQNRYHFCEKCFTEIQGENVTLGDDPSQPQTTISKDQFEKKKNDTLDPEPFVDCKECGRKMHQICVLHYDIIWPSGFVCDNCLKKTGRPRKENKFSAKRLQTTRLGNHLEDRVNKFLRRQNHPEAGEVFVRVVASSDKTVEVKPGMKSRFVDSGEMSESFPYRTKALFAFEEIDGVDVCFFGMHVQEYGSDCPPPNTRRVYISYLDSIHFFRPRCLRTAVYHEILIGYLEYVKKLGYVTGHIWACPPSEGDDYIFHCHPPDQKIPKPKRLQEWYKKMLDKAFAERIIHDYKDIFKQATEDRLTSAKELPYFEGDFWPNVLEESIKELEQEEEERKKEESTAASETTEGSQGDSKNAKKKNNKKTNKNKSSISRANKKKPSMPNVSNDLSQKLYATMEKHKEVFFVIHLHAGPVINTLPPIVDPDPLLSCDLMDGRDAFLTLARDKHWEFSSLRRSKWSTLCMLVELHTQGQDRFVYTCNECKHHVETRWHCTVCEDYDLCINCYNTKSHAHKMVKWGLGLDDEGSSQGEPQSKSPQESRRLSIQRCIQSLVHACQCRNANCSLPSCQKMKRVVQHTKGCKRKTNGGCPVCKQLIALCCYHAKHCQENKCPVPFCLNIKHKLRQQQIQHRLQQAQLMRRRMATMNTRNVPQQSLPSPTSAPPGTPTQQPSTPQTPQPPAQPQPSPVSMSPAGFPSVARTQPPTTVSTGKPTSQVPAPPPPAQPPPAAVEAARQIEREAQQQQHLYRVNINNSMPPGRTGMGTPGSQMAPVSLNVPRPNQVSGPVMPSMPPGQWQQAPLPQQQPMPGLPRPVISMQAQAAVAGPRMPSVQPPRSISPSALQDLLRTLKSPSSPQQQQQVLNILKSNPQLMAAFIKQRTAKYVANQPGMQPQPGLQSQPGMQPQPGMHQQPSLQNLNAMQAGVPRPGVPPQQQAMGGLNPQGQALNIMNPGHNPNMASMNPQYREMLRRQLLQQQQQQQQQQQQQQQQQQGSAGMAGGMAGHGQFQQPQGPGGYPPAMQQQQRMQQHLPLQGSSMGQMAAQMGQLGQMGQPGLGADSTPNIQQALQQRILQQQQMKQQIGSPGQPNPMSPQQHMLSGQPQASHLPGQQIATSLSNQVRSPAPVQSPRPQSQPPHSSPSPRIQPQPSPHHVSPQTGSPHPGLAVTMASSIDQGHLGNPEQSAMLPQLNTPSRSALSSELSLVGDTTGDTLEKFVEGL

Point of comparison: `CNC(=O)c1cc2cccnc2c(N2CCCc3cc(-c4cnn(C5CN(C)C5)c4)c(C(F)F)cc32)n1` [Example 54, 8-{7-difluoromethyl-6-[1-(1-methyl-azetidin-3-yl)-1H-pyrazol-4-yl]-3,4-dihydro-2H-quinolin-1-yl}-[1,7]naphthyridine-6-carboxylic acid methylamide], IC50 0.011 µM. Against it:
- CNC(=O)c1cc2cc(F)cnc2c(N2CCCc3cc(C4CCN(C(C)=O)CC4)c(C(F)F)cc32)n1 [Example 52, 8-[6-(1-acetylpiperidin-4-yl)-7-difluoro-methyl-3,4-dihydro-2H-quinolin-1-yl]-3-fluoro-[1,7] naphthyridine-6-carboxylic acid methylamide] — 2.5-fold higher, 0.027 µM
- CNC(=O)c1cc2cccnc2c(N2CCCc3cc(-c4cnn(C5CNC5)c4)c(C(F)F)cc32)n1 [Example 53, 8-[6-(1-azetidin-3-yl-1H-pyrazol-4-yl)-7-difluoromethyl-3,4-dihydro-2H-quinolin-1-yl]-[1,7]naphthyridine-6-carboxylic acid methylamide] — within 1.5-fold, 0.014 µM
- CNC(=O)c1cc2cccnc2c(N2CCCc3cc(-c4cnn(CC#N)c4)c(C(F)F)cc32)n1 [Example 55, 8-[6-(1-cyanomethyl-1H-pyrazol-4-yl)-7-difluoromethyl-3,4-dihydro-2H-quinolin-1-yl]-[1,7]naphthyridine-6-carboxylic acid methylamide] — within 1.5-fold, 0.015 µM
- CNC(=O)Cn1cc(-c2cc3c(cc2C(F)F)N(c2nc(C(=O)NC)cc4ccccc24)CCC3)cn1 [Example 56, 1-[7-difluoromethyl-6-(1-methylcarbamoylmethyl-1H-pyrazol-4-yl)-3,4-dihydro-2H-quinolin-1-yl]-isoquinoline-3-carboxylic acid methylamide] — 2.2-fold higher, 0.024 µM
- CNC(=O)c1cc2ccccc2c(N2CCCc3cc(-c4cnn(C)c4)c(Cl)cc32)n1 [Example 57, 1-[7-chloro-6-(1-methyl-1H-pyrazol-4-yl)-3,4-dihydro-2H-quinolin-1-yl]-isoquinoline-3-carboxylic acid methylamide] — 3.3-fold higher, 0.036 µM
- CNC(=O)c1ccc2c(c1)CCCN2c1nc(C(=O)NC)cc2ccccc12 [Example 58, 1-(3-methylcarbamoylisoquinolin-1-yl)-1,2,3,4-tetrahydroquinoline-6-carboxylic acid methylamide] — 9.1-fold higher, 0.1 µM
- CNC(=O)c1cc2ccccc2c(N2CCCc3cc(CO)ccc32)n1 [Example 59, 1-(6-hydroxymethyl-3,4-dihydro-2H-quinolin-1-yl)-isoquinoline-3-carboxylic acid methylamide] — 37-fold higher, 0.402 µM
- CNC(=O)c1cc2ccccc2c(N2CCOc3cc(-c4cnn(C)c4)ccc32)n1 [Example 60, 1-[7-(1-methyl-1H-pyrazol-4-yl)-2,3-dihydro-benzo[1,4]oxazin-4-yl]-isoquinoline-3-carboxylic acid methylamide] — 5.3-fold higher, 0.058 µM
- CNC(=O)c1cc2c(c(N3CCCc4cc(-c5cnn(C)c5)c(C(F)F)cc43)n1)CCC2 [Example 61, 1-[7-difluoromethyl-6-(1-methyl-1H-pyrazol-4-yl)-3,4-dihydro-2H-quinolin-1-yl]-6,7-dihydro-5H-[2]pyrazine-3-carboxylic acid methylamide] — 6.4-fold higher, 0.07 µM
- CNC(=O)c1cc2c(c(N3CCCc4cc(-c5cnn(C)c5)c(C(F)F)cc43)n1)COC2 [Example 62, 4-(7-(difluoro-methyl)-6-(1-methyl-1H-pyrazol-4-yl)-3,4-dihydroquinolin-1(2H)-yl)-N-methyl-1,3-dihydrofuran [3,4-c]pyridine-6-carboxamide] — 26-fold higher, 0.287 µM
- CNC(=O)c1cc2ccoc2c(N2CCCc3cc(-c4cnn(C)c4)c(C(F)F)cc32)n1 [Example 63, 7-[7-difluoromethyl-6-(1-methyl-1H-pyrazol-4-yl)-3,4-dihydro-2H-quinolin-1-yl]-furan[2,3-c]pyridine-5-carboxylic acid methylamide] — 12-fold higher, 0.136 µM
- CNC(=O)c1cc2ncccc2c(N2CCCc3cc(-c4cnn(C)c4)c(C(F)F)cc32)n1 [Example 64, 5-[7-difluoromethyl-6-(1-methyl-1H-pyrazol-4-yl)-3,4-dihydro-2H-quinolin-1-yl]-[1,6]naphthyridine-7-carboxylic acid methylamide] — within 1.5-fold, 0.014 µM
- CNC(=O)c1cc2cccnc2c(N2CCOc3cc(-c4cnn(C)c4)c(C(F)F)cc32)n1 [Example 65, 8-[6-difluoromethyl-7-(1-methyl-1H-pyrazol-4-yl)-2,3-dihydro-benzo[1,4]oxazin-4-yl]-[1,7]naphthyridine-6-carboxylic acid methylamide] — within 1.5-fold, 0.012 µM
- CNC(=O)c1cc2cccnc2c(-c2ccc3c(c2)c(-c2cnn(C)c2)nn3C)n1 [Example 66, 8-[1-methyl-3-(1-methy 1-1H-pyrazol-4-yl)-1H-indazol-5-yl]-[1,7]naphthyridine-6-carboxylic acid methylamide] — 4.5-fold higher, 0.049 µM
